The EC50 is the concentration needed to bring the measured effect to its halfway point.

Here are results for 22 molecules from patent US8575200B2, “Pyridin-2-yl derivatives as immunomodulating agents” (Actelion Pharmaceuticals Ltd, priority 2008, dated 2013).

The structures appear in SMILES notation. Marks after values point to notes of the source that are not given here. Some results are limits rather than exact numbers.

The target of the first assay is recombinant human S1P1 receptor (Homo sapiens, UniProt P21453). Description: GTPγS assay to determine EC50 values. It counts as biochemical. The note with it: 35S-GTPγS binding, membrane preparations of CHO cells expressing recombinant human S1P1 receptor, agonistic activity. The procedure: GTPγS binding assays are performed in 96 well microtiter plates (Nunc, 442587) in a final volume of 200 μl, using membrane preparations of CHO cells expressing recombinant human S1P1 receptor. Assay conditions are 20 mM Hepes (Fluka, 54461), 100 mM NaCl (Fluka, 71378), 5 mM MgCl2 (Fluka, 63064), 0.1% BSA (Calbiochem, 126609), 1 μM GDP (Sigma, G-7127), 2.5% DMSO (Fluka, 41644), […] ^35S-GTPγS (Amersham Biosciences, SJ1320). The pH is 7.4. Test compounds are dissolved and diluted in 100% DMSO and pre-incubated at room temperature for 30 min in 150 μl of the above assay buffer, in the absence of ^35S-GTPγS. After addition of 50 μl of ^35S-GTPγS, the assay is incubated for 1 h at rt. The assay is terminated by transfer of the reaction mixture to a Multiscreen plate (Millipore, MAHFC1H60) using a cell harvester from Packard Biosciences, and the plates are washed with ice-cold 10 mM Na2HPO4/NaH2PO4 (70%/30%), dried, sealed at the bottom and, after addition of 25 μl MicroScint20 (Packard Biosciences, order #6013621), sealed on the top. Membrane-bound ^35S-GTPγS is measured with a TopCount from Packard Biosciences.
Chain of recombinant human S1P1 receptor (P21453 whole entry): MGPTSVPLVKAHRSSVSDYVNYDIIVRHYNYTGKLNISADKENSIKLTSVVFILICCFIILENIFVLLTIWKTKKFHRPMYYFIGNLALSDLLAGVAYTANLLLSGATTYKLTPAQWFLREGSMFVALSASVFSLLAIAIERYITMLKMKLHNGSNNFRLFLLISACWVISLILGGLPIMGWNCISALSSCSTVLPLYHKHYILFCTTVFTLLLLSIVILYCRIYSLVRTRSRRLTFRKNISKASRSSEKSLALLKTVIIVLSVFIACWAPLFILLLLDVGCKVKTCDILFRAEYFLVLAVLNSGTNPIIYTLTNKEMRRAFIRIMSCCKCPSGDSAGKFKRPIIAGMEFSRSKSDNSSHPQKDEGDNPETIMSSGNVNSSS
EC50 is the concentration of agonist inducing 50% of the maximal specific ^35S-GTPγS binding. Specific binding is determined by subtracting non-specific binding from maximal binding. Maximal binding is the amount of cpm bound to the Multiscreen plate in the presence of 10 μM of S1P. Non-specific binding is the amount of binding in the absence of an agonist in the assay.
For the molecule `COc1cc(CC(C)C)nc(-c2nc(-c3cc(C)c(OC[C@@H](O)CNC(=O)CO)c(C)c3)no2)c1` [Example 10], the 50% effective concentration (EC50) worked out at 2.7 nM.

Consider `CCc1cc(-c2noc(-c3cc(OC)cc(CC(C)C)n3)n2)cc(C)c1OC[C@@H](O)CNC(=O)CO` [Example 17, N—((S)-3-{2-ethyl-4-[5-(6-isobutyl-4-methoxy-pyridin-2-yl)-[1,2,4]oxadiazol-3-yl]-6-methyl-phenoxy}-2-hydroxy-propyl)-2-hydroxy-acetamide], for which the 50% effective concentration (EC50) came out at 2.3 nM.

Regarding `CCc1cc(-c2noc(-c3cc(C)c(CC(C)C)cn3)n2)cc(C)c1OC[C@H](O)CO` [Example 33, (R)-3-{2-ethyl-4-[5-(5-isobutyl-4-methyl-pyridin-2-yl)-[1,2,4]oxadiazol-3-yl]-6-methyl-phenoxy}-propane-1,2-diol], the EC50 came to 7.2 nM.

Consider `CCc1cc(-c2noc(-c3cc(C)c(CC(C)C)cn3)n2)cc(C)c1OC[C@@H](O)CO` [Example 34, (S)-3-{2-ethyl-4-[5-(5-isobutyl-4-methyl-pyridin-2-yl)-[1,2,4]oxadiazol-3-yl]-6-methyl-phenoxy}-propane-1,2-diol], for which the EC50 amounted to 9.1 nM.

With `CCc1cc(-c2noc(-c3cc(C)c(CC(C)C)cn3)n2)cc(C)c1CCC(=O)NCCC(=O)O` [Example 40, 3-(3-{2-Ethyl-4-[5-(5-isobutyl-4-methyl-pyridin-2-yl)-[1,2,4]oxadiazol-3-yl]-6-methyl-phenyl}-propionylamino)-propionic acid], the EC50 is 3.3 nM.

Take `CCc1cc(-c2noc(-c3cc(C)c(CC(C)C)cn3)n2)cc(C)c1OCCNCCC(=O)O` [Example 50, 3-(2-{2-Ethyl-4-[5-(5-isobutyl-4-methyl-pyridin-2-yl)-[1,2,4]oxadiazol-3-yl]-6-methyl-phenoxy}-ethylamino)-propionic acid]: the EC50 stood at 5.1 nM.

As for `CCc1cc(-c2noc(-c3cc(C)c(CC(C)C)cn3)n2)cc(C)c1OCCNC(=O)CO` [Example 51, N-(2-{2-Ethyl-4-[5-(5-isobutyl-4-methyl-pyridin-2-yl)-[1,2,4]oxadiazol-3-yl]-6-methyl-phenoxy}-ethyl)-2-hydroxy-acetamide], the EC50 came out at 8.8 nM.

Regarding `CCc1cc(-c2noc(-c3cc(C)c(CC(C)C)cn3)n2)cc(C)c1OC(CO)CO` [Example 55, 2-{2-Ethyl-4-[5-(5-isobutyl-4-methyl-pyridin-2-yl)-[1,2,4]oxadiazol-3-yl]-6-methyl-phenoxy}-propane-1,3-diol], the EC50 is 4.7 nM.

Take `CCc1cc(-c2noc(-c3cc(C)c(CC(C)C)cn3)n2)cc(C)c1OC[C@@H](O)CNCCO` [Example 58, 1-{2-Ethyl-4-[5-(5-isobutyl-4-methyl-pyridin-2-yl)-[1,2,4]oxadiazol-3-yl]-6-methyl-phenoxy}-3-((2S)-2-hydroxy-ethylamino)-propan-2-ol]: the EC50 was 11.2 nM.

On to `CCc1cc(-c2noc(-c3cc(C)c(CC(C)C)cn3)n2)cc(C)c1OC[C@@H](O)CNS(=O)(=O)CC` [Example 59, Ethanesulfonic acid ((2S)-3-{2-ethyl-4-[5-(5-isobutyl-4-methyl-pyridin-2-yl)-[1,2,4]oxadiazol-3-yl]-6-methyl-phenoxy}-2-hydroxy-propyl)-amide], for which the EC50 came to 11.9 nM.

For `CCc1cc(-c2noc(-c3cc(C)c(CC(C)C)cn3)n2)cc(C)c1OC[C@@H](O)CNCCC(=O)O` [Example 61, 3-((2S)-3-{2-Ethyl-4-[5-(5-isobutyl-4-methyl-pyridin-2-yl)-[1,2,4]oxadiazol-3-yl]-6-methyl-phenoxy}-2-hydroxy-propylamino)-propionic acid], the EC50 worked out at 2.3 nM.

As for `CCc1cc(-c2noc(-c3cc(C)cc(C(CC)CC)n3)n2)cc(C)c1OC[C@@H](O)CO` [Example 62, (S)-3-(2-Ethyl-4-{5-[6-(1-ethyl-propyl)-4-methyl-pyridin-2-yl]-[1,2,4]oxadiazol-3-yl}-6-methyl-phenoxy)-propane-1,2-diol], the half-maximal effective concentration (EC50) was 2.2 nM.

For `CCC(CC)c1cc(OC)cc(-c2nc(-c3cc(C)c(OC[C@@H](O)CO)c(Cl)c3)no2)n1` [Example 65, (S)-3-(2-chloro-4-{5-[6-(1-ethyl-propyl)-4-methoxy-pyridin-2-yl]-[1,2,4]oxadiazol-3-yl}-6-methyl-phenoxy)-propane-1,2-diol], the EC50 stood at 9.4 nM.

Regarding `CCc1cc(-c2noc(-c3cc(OC)cc(C(CC)CC)n3)n2)cc(C)c1OC[C@@H](O)CNC(=O)CO` [Example 69, N—[(S)-3-(2-ethyl-4-{5-[6-(1-ethyl-propyl)-4-methoxy-pyridin-2-yl]-[1,2,4]oxadiazol-3-yl}-6-methyl-phenoxy)-2-hydroxy-propyl]-2-hydroxy-acetamide], the EC50 is 3.1 nM.

`CCC(CC)c1cc(OC)cc(-c2nc(-c3cc(C)c(OC[C@@H](O)CNC(=O)CO)c(C)c3)no2)n1` [Example 70, N—[(S)-3-(4-{5-[6-(1-ethyl-propyl)-4-methoxy-pyridin-2-yl]-[1,2,4]oxadiazol-3-yl}-2,6-dimethyl-phenoxy)-2-hydroxy-propyl]-2-hydroxy-acetamide]: the EC50 is 2.8 nM.

As to `CCC(CC)c1cc(OC)cc(-c2nc(-c3cc(C)c(OC[C@@H](O)CNC(=O)CO)c(Cl)c3)no2)n1` [Example 71, N—[(S)-3-(2-chloro-4-{5-[6-(1-ethyl-propyl)-4-methoxy-pyridin-2-yl]-[1,2,4]oxadiazol-3-yl}-6-methyl-phenoxy)-2-hydroxy-propyl]-2-hydroxy-acetamide], the EC50 amounted to 0.8 nM.

For `CCC(CC)c1cc(OC)cc(-c2nc(-c3cc(C)c(OC[C@@H](O)CNC(=O)CO)c(OC)c3)no2)n1` [Example 72, N—[(S)-3-(4-{5-[6-(1-ethyl-propyl)-4-methoxy-pyridin-2-yl]-[1,2,4]oxadiazol-3-yl}-2-methoxy-6-methyl-phenoxy)-2-hydroxy-propyl]-2-hydroxy-acetamide], the EC50 came out at 8.8 nM.

Consider `CCc1cc(-c2nc(-c3cc(C)c(CC(C)C)cn3)no2)cc(C)c1OC[C@@H](O)CNC(=O)CO` [Example 74, N-((2S)-3-{2-Ethyl-4-[3-(5-isobutyl-4-methyl-pyridin-2-yl)-[1,2,4]oxadiazol-5-yl]-6-methyl-phenoxy}-2-hydroxy-propyl)-2-hydroxy-acetamide], for which the EC50 came to 9 nM.

The same assay, now with this note: 35S-GTPγS binding, membranes of CHO cells expressing recombinant human S1P1 receptor.
For `CCc1cc(-c2nnc(-c3cc(C)c(CC(C)C)cn3)o2)cc(C)c1OC[C@@H](O)CN` [Example 43], the EC50 was over 10000 nM.

Another assay relates to circulating lymphocytes. In words: Assessment of in vivo efficacy: circulating lymphocytes after oral administration. More on the design: species or system normotensive male Wistar rats. The note with it: 3 h after administration; oral 10 mg/kg, male Wistar rats, compared to vehicle group. The procedure:
The efficacy of the compounds of Formula (I) is assessed by measuring the circulating lymphocytes after oral administration of 3 to 30 mg/kg of a compound of Formula (I) to normotensive male Wistar rats. The animals are housed in climate-controlled conditions with a 12 h-light/dark cycle, and have free access to normal rat chow and drinking water. Blood is collected before and 3, 6 and 24 h after drug administration. Full blood is subjected to hematology using Advia Hematology system (Bayer Diagnostics, Zürich, Switzerland).
All data are presented as mean±SEM. Statistical analyses are performed by analysis of variance (ANOVA) using Statistica (StatSoft) and the Student-Newman-Keuls procedure for multiple comparisons. The null hypothesis is rejected when p<0.05.
Lymphocyte counts 6 h after oral administration have been measured for 7 of the exemplified compounds (Table 2) and are in the range of −35% to −74% with an average of −64%.
`CCc1cc(-c2noc(-c3cc(C)c(CC(C)C)cn3)n2)cc(C)c1OC(CO)CO` [Example 55, 2-{2-Ethyl-4-[5-(5-isobutyl-4-methyl-pyridin-2-yl)-[1,2,4]oxadiazol-3-yl]-6-methyl-phenoxy}-propane-1,3-diol]: the Lymphocyte counts is reported as −65%*.

The same assay, now with this note: 6 h after oral administration of 10 mg/kg to male Wistar rats, compared to vehicle group.
Turning to `CCc1cc(-c2noc(-c3cc(C)cc(CC(C)C)n3)n2)cc(C)c1OC[C@@H](O)CNC(=O)CO` [Example 1, N—((S)-3-{2-Ethyl-4-[5-(6-isobutyl-4-methyl-pyridin-2-yl)-[1,2,4]oxadiazol-3-yl]-6-methyl-phenoxy}-2-hydroxy-propyl)-2-hydroxy-acetamide], the Lymphocyte counts is −74%.

For `CCc1cc(-c2noc(-c3cc(CC(C)C)cc(C)n3)n2)cc(C)c1OC[C@@H](O)CNC(=O)CO` [Example 5, N—((S)-3-{2-Ethyl-4-[5-(4-isobutyl-6-methyl-pyridin-2-yl)-[1,2,4]oxadiazol-3-yl]-6-methyl-phenoxy}-2-hydroxy-propyl)-2-hydroxy-acetamide], the Lymphocyte counts is listed as −67%.

Take `CCc1cc(-c2noc(-c3cc(OC)cc(CC(C)C)n3)n2)cc(C)c1OC[C@@H](O)CNC(=O)CO` [Example 17, N—((S)-3-{2-ethyl-4-[5-(6-isobutyl-4-methoxy-pyridin-2-yl)-[1,2,4]oxadiazol-3-yl]-6-methyl-phenoxy}-2-hydroxy-propyl)-2-hydroxy-acetamide]: the Lymphocyte counts is on record as −66%.

For the molecule `CCc1cc(-c2noc(-c3cc(C)c(CC(C)C)cn3)n2)cc(C)c1OC[C@@H](O)CO` [Example 34, (S)-3-{2-ethyl-4-[5-(5-isobutyl-4-methyl-pyridin-2-yl)-[1,2,4]oxadiazol-3-yl]-6-methyl-phenoxy}-propane-1,2-diol], the Lymphocyte counts is recorded as −70%.

As for `CCc1cc(-c2noc(-c3cc(C)c(CC(C)C)cn3)n2)cc(C)c1OC[C@@H](O)CNC(=O)CO` [Example 36, N—((S)-3-{2-ethyl-4-[5-(5-isobutyl-4-methyl-pyridin-2-yl)-[1,2,4]oxadiazol-3-yl]-6-methyl-phenoxy}-2-hydroxy-propyl)-2-hydroxy-acetamide], the Lymphocyte counts is listed as −74%.

As for `CCc1cc(-c2noc(-c3cc(C)c(CC(C)C)cn3)n2)cc(C)c1CCC(=O)NCCC(=O)O` [Example 40, 3-(3-{2-Ethyl-4-[5-(5-isobutyl-4-methyl-pyridin-2-yl)-[1,2,4]oxadiazol-3-yl]-6-methyl-phenyl}-propionylamino)-propionic acid], the Lymphocyte counts is given as −35%.
